Consider 3 compounds from ChEMBL document CHEMBL1150827, “Pseudodestruxins A and B: new cyclic depsipeptides from the coprophilous fungus Nigrosabulum globosum” (2001).

The test system of experiment [1] is Sordaria fimicola. As to the kind of experiment: Antifungal activity against Sordaria fimicola NRRL 6459 at 200 ug/disk by standard disk assay. Type of experiment: functional, organism-based.
Experiment [2] has as its system Ascobolus. Description: Antifungal activity against Ascobolus furfuraceus NRRL 6460 at 200 ug/disk by standard disk assay. The class given is functional, organism-based.
The subject of the next experiment is Bacillus subtilis. As to the kind of experiment: Antibacterial activity against Bacillus subtilis ATCC 6051 at 200 ug/disk by standard disk assay. The conditions noted are these: read-out: IZ. Type of experiment: functional.
The next experiment has as its system Helicoverpa zea. Description: Antiinsectan activity against Helicoverpa zea larvae at 100 ppm dietary level by dietary assay. Type of experiment: functional, organism-based.
Another experiment relates to Staphylococcus aureus. Description: Antibacterial activity against Staphylococcus aureus ATCC 29213 at 200 ug/disk by standard disk assay. The class given is functional. Conditions: read-out: IZ.
In the next experiment the test system is Candida albicans. As to the kind of experiment: Antifungal activity against Candida albicans ATCC 90029 at 200 ug/disk by standard disk assay. Type of experiment: functional. Conditions: read-out: IZ.
Experiment [3] relates to Sordaria fimicola. Description: Antifungal activity against Sordaria fimicola NRRL 6459 assessed as inhibition of radial growth at 200 ug/disk by standard disk assay. Type of experiment: functional.
Experiment [4] concerns Ascobolus. As to the kind of experiment: Antifungal activity against Ascobolus furfuraceus NRRL 6460 assessed as inhibition of radial growth at 200 ug/disk by standard disk assay. The class given is functional.

A word on the inhibition: it is the share of the control response that was lost under treatment.

The source made the active and inactive calls. The rule behind the calls is not given here. Non-standard residues stand in square brackets, D forms with d. Residues, ends and D or L forms follow the SMILES beside them. NMeI = CC[C@H](C)[C@H](NC)C(=O)O; Hica(2S) = CC(C)C[C@H](O)C(=O)O; NMeL = CN[C@@H](CC(C)C)C(=O)O; NMeV = CN[C@H](C(=O)O)C(C)C; βAla = NCCC(=O)O

Take `CC(C)C[C@@H]1OC(=O)CCNC(=O)[C@H](CC(C)C)N(C)C(=O)[C@H](C(C)C)N(C)C(=O)[C@H](Cc2ccccc2)NC(=O)[C@@H]2CCCN2C1=O` [PSEUDODESTRUXIN B] (cyclo(F[NMeV][NMeL][βAla][Hica(2S)]P)): the “inhibition zone (IZ)” value in the experiment on Sordaria fimicola [1] and in the experiment with Ascobolus [2] was “inactive” throughout. Moreover, in the experiment on Bacillus subtilis, the zone of inhibition at 200 µg/disc stood at 8 mm.

For the compound `CC[C@H](C)[C@H]1C(=O)N(C)[C@@H](CC(C)C)C(=O)NCCC(=O)O[C@@H](CC(C)C)C(=O)N2CCC[C@H]2C(=O)N[C@@H](Cc2ccccc2)C(=O)N1C` [PSEUDODESTRUXIN A] (cyclo(F[NMeI][NMeL][βAla][Hica(2S)]P)), the “inhibition zone (IZ)” value with Sordaria fimicola [1] and with Ascobolus [2] was “inactive” each time. Moreover, in the experiment with Helicoverpa zea, the outcome was inactive. For the same compound, the zone of inhibition at 200 µg/disc in the experiment with Bacillus subtilis stood at 8 mm.

Consider `CC(/C=C/[C@@]1(C)[C@H](C)CCC(=O)[C@@H]1C)=C\Cc1c(O)c(Cl)c(C)c(C=O)c1O` [ASCOCHLORIN], for which the zone of inhibition at 200 µg/disc in the experiment with Staphylococcus aureus came to 11 mm; in the experiment on Bacillus subtilis it was 12 mm; in the experiment with Candida albicans, 24 mm. The inhibition at 200 µg/disc with Sordaria fimicola [3] was determined as 62%; in the experiment on Ascobolus [4] it was 33%.
